Results from US9518015B2, “EP1 receptor ligands” (LABORATORIOS DEL DR. ESTEVE, S.A., priority 2011, dated 2016).
Where a name gives a salt, the structure may show the parent alone.

Experiments:
human EP1 receptor [1] = target: T1, human EP1 receptor (Homo sapiens, UniProt P34995); assay: Test 3: Measurement of IP1 responses by HTRF, HEK-293 cells stably expressing human EP1 receptors incubated o/n, PGE2 10 nM; assay type: cell-based; set-up: expressed in transfected cells; conditions: for inhibition at 10 µM: HEK293, read-out: Results of Test 3 (Functional assay), % inh; for Results of Test 3 (Functional assay), % inh: at 10 μM
T1 sequence (P34995 1-402): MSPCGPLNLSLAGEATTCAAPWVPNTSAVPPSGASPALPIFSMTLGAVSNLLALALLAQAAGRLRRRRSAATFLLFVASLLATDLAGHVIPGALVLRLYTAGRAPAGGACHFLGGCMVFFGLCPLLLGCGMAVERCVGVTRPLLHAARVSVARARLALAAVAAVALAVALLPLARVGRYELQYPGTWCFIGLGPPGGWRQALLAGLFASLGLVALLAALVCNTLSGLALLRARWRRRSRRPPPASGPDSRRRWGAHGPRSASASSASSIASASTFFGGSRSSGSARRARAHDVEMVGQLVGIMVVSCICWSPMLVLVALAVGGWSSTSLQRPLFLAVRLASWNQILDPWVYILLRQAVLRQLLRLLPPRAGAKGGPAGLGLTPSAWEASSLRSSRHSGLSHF
Description: Test 3: Measurement of IP1 Responses by Homogeneous Time Resolved Fluorescence
IP1 measurements on HEK-293 cells that stably expressed human EP1 receptors were performed by using a system based on Homogeneous Time Resolved Fluorescense (HTRF) (Gabriel et al., 2003). This technology allows the direct measurement of IP1 in living cells. The principle of this assay is based on competition between IP1 produced by cells and IP1-d2 conjugate for the binding with monoclonal anti-IP1-cryptate conjugate. The HTRF IP1 kit from CisBio was used according to the manufacturer's directions. The experimental procedure was performed as stated below.
40,000 cells per well were added to 96-well culture plates in 40 μl of Optimem and incubated o/n at 37° C. Optimem was replaced by 40 μl of stimulation buffer (supplied by the kit) and compounds were then added in 20 μl of stimulation buffer and incubated at 37° C. for 15 minutes followed by 10 μl of PGE2 to a final concentration of 10 nM. After 90 minutes at 37° C., the reaction was stopped lysing the cells with a mixture of 15 μl of cryptate and 15 μl of IP1-d2 prepared in the lysis buffer supplied by the manufacturer. Plates were incubated for an additional hour at room temperature and read at 665 nm/620 nm using an UltraEvolution Plate reader (Tecan).
Antagonist percentage inhibition was calculated relating compounds activity to the 0% inhibition of the wells incubated with 10 nM PGE2 alone and 100% inhibition of the wells incubated with 10 nM PGE2 plus 10 μM of the reference antagonist.

human EP1 receptor [2] = target: T1, human EP1 receptor; assay: Test 1: Human EP1 receptor radioligand binding assay ([3H]-PGE2, transfected HEK-293 cell membranes); set-up: expressed in transfected cells; host or cells: HEK-293 cell membranes; conditions: for inhibition at 10 µM: read-out: Results of Test 1 (Binding assay), % inh; for Results of Test 1 (Binding assay), % inh: at 10 μM
Procedure, shortened: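 Membranes from transfected HEK-293 cells (30 μg protein) incubated with 10 nM [3H]-PGE2 in pH 6.0 MES buffer for 60 min at 25° C., then filtered and counted by scintillation. Percent inhibition set against total binding and 10 μM PGE2 non-specific binding.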

Row | Structure (SMILES) | inhibition at 10 µM (human EP1 receptor [1]) [%] | inhibition at 10 µM (human EP1 receptor [2]) [%] | Results of Test 3 (Functional assay), % inh (human EP1 receptor [1]) | Results of Test 1 (Binding assay), % inh (human EP1 receptor [2])
1 | O=C(O)c1ccnc2c1cnn2Cc1cc(Cl)ccc1OCc1ccc(Cl)cc1F [Example 212, sodium 1-{5-chloro-2-[(4-chloro-2-fluorobenzyl)oxy]benzyl}-1H-pyrazolo[3,4-b]pyridine-4-carboxylate] | > 75 | > 75 |  | 
2 | O=C(O)c1ccnc2c1CCN2Cc1cc(Cl)ccc1OCc1ccc(Cl)cc1F [Example 216, sodium 1-{5-chloro-2-[(4-chloro-2-fluorobenzyl)oxy]benzyl}-2,3-dihydro-1H-pyrrolo[2,3-b]pyridine-4-carboxylate] | > 75 | > 75 |  | 
3 | O=C([O-])c1ccnc2c1CCN2Cc1cc(Cl)ccc1OCc1ccc(F)cc1F.[Na+] [Example 217] |  |  | $ (% inh > 75) | # (% inh > 75)
4 | O=C([O-])c1ccnc2c1CCN2Cc1cc(Cl)ccc1OCc1ccc(F)cc1.[Na+] [Example 220] |  |  | $ (% inh > 75) | # (% inh > 75)
5 | CC(C)(F)COc1ccc(Cl)cc1CN1CCc2c(C(=O)[O-])ccnc21.[Na+] [Example 221] |  |  | $ (% inh > 75) | # (% inh > 75)
6 | O=C(O)c1cncc2c1CCCN2Cc1cc(Cl)ccc1OCc1ccc(Cl)cc1F [Example 226, Sodium 1-{5-chloro-2-[(4-chloro-2-fluorobenzyl)oxy]benzyl}-1,2,3,4-tetrahydro-1,7-naphthyridine-5-carboxylate] | > 75 | > 75 |  | 
7 | O=C(O)c1cncc2c1CCCN2Cc1cc(Cl)ccc1OCc1ccc(F)cc1F [Example 227] | > 75 | > 75 |  | 
8 | CC(C)COc1ccc(Cl)cc1CN1CCc2c(C(=O)NS(C)(=O)=O)ccnc21 [Example 234, 1-(5-chloro-2-isobutoxybenzyl)-N-(methylsulfonyl)-2,3-dihydro-1H-pyrrolo[2,3-b]pyridine-4-carboxamide sodium salt] | > 75 | > 75 |  | 
9 | CN(C)S(=O)(=O)NC(=O)c1cccc2c1CCCN2Cc1cc(Cl)ccc1OCc1ccc(Cl)cc1F [Example 237, 1-{5-chloro-2-[(4-chloro-2-fluorobenzyl)oxy]benzyl}-N-[(dimethylamino)sulfonyl]-1,2,3,4-tetrahydroquinoline-5-carboxamide sodium salt] | 45 to 75 | > 75 |  | 
10 | O=C(O)c1cncc2c1CCCN2Cc1ccccc1OCc1ccc(Cl)cc1F [Example 240] | > 75 | > 75 |  | 
11 | CC(C)(F)COc1ccc(Cl)cc1CN1CCCc2c(C(=O)O)cncc21 [Example 242] | > 75 | > 75 |  | 
12 | O=C(O)c1cncc2c1CCCN2Cc1cc(F)ccc1OCc1ccc(F)cc1F [Example 243] | > 75 | > 75 |  | 
13 | O=C(O)c1cncc2c1CCN2Cc1cc(Cl)ccc1OCc1ccc(Cl)cc1F [Example 248, sodium 1-{5-chloro-2-[(4-chloro-2-fluorobenzyl)oxy]benzyl}-2,3-dihydro-1H-pyrrolo[2,3-c]pyridine-4-carboxylate] | > 75 | > 75 |  | 
